Data as given in the NIST ThermoML archive (doi:10.1021/je700029q).
Numbers after ± are expanded uncertainties.

Tests used:
[1] = refractive index (Na D-line) (dimensionless); xn = mol fraction of the nth substance listed; settings: 298.15 K, 101 kPa, Liquid
[2] = xn = mol fraction of the nth substance listed; settings: 101 kPa, Liquid

`CCOS(=O)(=O)[O-].CCn1cc[n+](C)c1` [1-ethyl-3-methylimidazolium ethyl sulfate] + CC(C)O gave a refractive index ([1]; x2 = 0) of 1.4794 ± 0.0013, a refractive index ([1]; x2 = 0.1228) of 1.47434 ± 0.0012 and a refractive index ([1]; x2 = 0.2066) of 1.47057 ± 0.0012. It also gave a refractive index ([1]; x2 = 0.309) of 1.46502 ± 0.0011, a refractive index ([1]; x2 = 0.399) of 1.45926 ± 0.0011 and a refractive index ([1]; x2 = 0.4977) of 1.45177 ± 0.001. It also gave a refractive index ([1]; x2 = 0.6341) of 1.43881 ± 0.00095, a refractive index ([1]; x2 = 0.7223) of 1.42818 ± 0.00092 and a refractive index ([1]; x2 = 0.8551) of 1.40784 ± 0.00088. For the same compound, the refractive index ([1]; x2 = 0.9706) was 1.38306 ± 0.00087, the mass density ([2]; 298.15 K, x2 = 0) was 1237.6 ± 9.2 kg/m3 and the speed of sound ([2]; 298.15 K, x2 = 0) was 1679 ± 8 m/s. For the same compound, the viscosity ([2]; 298.15 K, x2 = 0) was 97.58 ± 5.1 mPa·s, the mass density ([2]; 298.15 K, x2 = 0.1228) was 1214.3 ± 7 kg/m3 and the speed of sound ([2]; 298.15 K, x2 = 0.1228) was 1644 ± 8 m/s. It also gave a viscosity ([2]; 298.15 K, x2 = 0.1228) of 69.71 ± 2.3 mPa·s, a mass density ([2]; 298.15 K, x2 = 0.2066) of 1196.4 ± 5.7 kg/m3 and a speed of sound ([2]; 298.15 K, x2 = 0.2066) of 1611 ± 7 m/s. For the same compound, the viscosity ([2]; 298.15 K, x2 = 0.2066) was 53.67 ± 1.2 mPa·s, the mass density ([2]; 298.15 K, x2 = 0.309) was 1170.9 ± 4.4 kg/m3 and the speed of sound ([2]; 298.15 K, x2 = 0.309) was 1570 ± 7 m/s. For the same compound, the viscosity ([2]; 298.15 K, x2 = 0.309) was 40.1 ± 0.99 mPa·s, the mass density ([2]; 298.15 K, x2 = 0.399) was 1144.9 ± 3.3 kg/m3 and the speed of sound ([2]; 298.15 K, x2 = 0.399) was 1529 ± 7 m/s. For the same compound, the viscosity ([2]; 298.15 K, x2 = 0.399) was 29.79 ± 0.7 mPa·s, the mass density ([2]; 298.15 K, x2 = 0.4977) was 1111.8 ± 2.4 kg/m3 and the speed of sound ([2]; 298.15 K, x2 = 0.4977) was 1475 ± 6 m/s. For the same compound, the viscosity ([2]; 298.15 K, x2 = 0.4977) was 21.14 ± 0.47 mPa·s, the mass density ([2]; 298.15 K, x2 = 0.6341) was 1054.2 ± 1.3 kg/m3 and the speed of sound ([2]; 298.15 K, x2 = 0.6341) was 1399 ± 6 m/s. The viscosity ([2]; 298.15 K, x2 = 0.6341) was 12.4 ± 0.26 mPa·s, the mass density ([2]; 298.15 K, x2 = 0.7223) was 1008.5 ± 0.8 kg/m3 and the speed of sound ([2]; 298.15 K, x2 = 0.7223) was 1342 ± 6 m/s. For the same compound, the viscosity ([2]; 298.15 K, x2 = 0.7223) was 8.462 ± 0.18 mPa·s, the mass density ([2]; 298.15 K, x2 = 0.8551) was 920.2 ± 0.7 kg/m3 and the speed of sound ([2]; 298.15 K, x2 = 0.8551) was 1251 ± 5 m/s. It also gave a viscosity ([2]; 298.15 K, x2 = 0.8551) of 4.475 ± 0.1 mPa·s, a mass density ([2]; 298.15 K, x2 = 0.9706) of 814.1 ± 0.9 kg/m3 and a speed of sound ([2]; 298.15 K, x2 = 0.9706) of 1164 ± 5 m/s. The viscosity ([2]; 298.15 K, x2 = 0.9706) was 2.499 ± 0.058 mPa·s, the mass density ([2]; 313.15 K, x2 = 0) was 1227.5 ± 9 kg/m3 and the speed of sound ([2]; 313.15 K, x2 = 0) was 1643 ± 8 m/s. For the same compound, the viscosity ([2]; 313.15 K, x2 = 0) was 50.01 ± 1.3 mPa·s, the mass density ([2]; 313.15 K, x2 = 0.1228) was 1204.4 ± 6.9 kg/m3 and the speed of sound ([2]; 313.15 K, x2 = 0.1228) was 1608 ± 8 m/s. It also gave a viscosity ([2]; 313.15 K, x2 = 0.1228) of 37.79 ± 1.1 mPa·s, a mass density ([2]; 313.15 K, x2 = 0.2066) of 1186.4 ± 5.6 kg/m3 and a speed of sound ([2]; 313.15 K, x2 = 0.2066) of 1576 ± 7 m/s. The viscosity ([2]; 313.15 K, x2 = 0.2066) was 30.34 ± 0.82 mPa·s, the mass density ([2]; 313.15 K, x2 = 0.309) was 1160.9 ± 4.3 kg/m3 and the speed of sound ([2]; 313.15 K, x2 = 0.309) was 1534 ± 7 m/s. The viscosity ([2]; 313.15 K, x2 = 0.309) was 23.56 ± 0.6 mPa·s, the mass density ([2]; 313.15 K, x2 = 0.399) was 1134.7 ± 3.3 kg/m3 and the speed of sound ([2]; 313.15 K, x2 = 0.399) was 1491 ± 7 m/s. The viscosity ([2]; 313.15 K, x2 = 0.399) was 18.23 ± 0.44 mPa·s, the mass density ([2]; 313.15 K, x2 = 0.4977) was 1101.3 ± 2.3 kg/m3 and the speed of sound ([2]; 313.15 K, x2 = 0.4977) was 1439 ± 6 m/s. The viscosity ([2]; 313.15 K, x2 = 0.4977) was 13.41 ± 0.31 mPa·s, the mass density ([2]; 313.15 K, x2 = 0.6341) was 1043.5 ± 1.3 kg/m3 and the speed of sound ([2]; 313.15 K, x2 = 0.6341) was 1360 ± 6 m/s. The viscosity ([2]; 313.15 K, x2 = 0.6341) was 8.274 ± 0.18 mPa·s, the mass density ([2]; 313.15 K, x2 = 0.7223) was 997.4 ± 0.8 kg/m3 and the speed of sound ([2]; 313.15 K, x2 = 0.7223) was 1302 ± 6 m/s. For the same compound, the viscosity ([2]; 313.15 K, x2 = 0.7223) was 5.753 ± 0.13 mPa·s, the mass density ([2]; 313.15 K, x2 = 0.8551) was 908.6 ± 0.7 kg/m3 and the speed of sound ([2]; 313.15 K, x2 = 0.8551) was 1207 ± 5 m/s. For the same compound, the viscosity ([2]; 313.15 K, x2 = 0.8551) was 3.081 ± 0.072 mPa·s, the mass density ([2]; 313.15 K, x2 = 0.9706) was 801.7 ± 0.9 kg/m3 and the speed of sound ([2]; 313.15 K, x2 = 0.9706) was 1113 ± 5 m/s. For the same compound, the viscosity ([2]; 313.15 K, x2 = 0.9706) was 1.658 ± 0.042 mPa·s, the mass density ([2]; 328.15 K, x2 = 0) was 1217.5 ± 8.9 kg/m3 and the speed of sound ([2]; 328.15 K, x2 = 0) was 1605 ± 8 m/s. For the same compound, the viscosity ([2]; 328.15 K, x2 = 0) was 29.18 ± 0.92 mPa·s, the mass density ([2]; 328.15 K, x2 = 0.1228) was 1194.5 ± 6.8 kg/m3 and the speed of sound ([2]; 328.15 K, x2 = 0.1228) was 1569 ± 8 m/s. It also gave a viscosity ([2]; 328.15 K, x2 = 0.1228) of 22.97 ± 0.67 mPa·s, a mass density ([2]; 328.15 K, x2 = 0.2066) of 1176.3 ± 5.5 kg/m3 and a speed of sound ([2]; 328.15 K, x2 = 0.2066) of 1537 ± 7 m/s. It also gave a viscosity ([2]; 328.15 K, x2 = 0.2066) of 18.93 ± 0.52 mPa·s, a mass density ([2]; 328.15 K, x2 = 0.309) of 1150.7 ± 4.2 kg/m3 and a speed of sound ([2]; 328.15 K, x2 = 0.309) of 1494 ± 7 m/s. For the same compound, the viscosity ([2]; 328.15 K, x2 = 0.309) was 15.2 ± 0.4 mPa·s, the mass density ([2]; 328.15 K, x2 = 0.399) was 1124.3 ± 3.2 kg/m3 and the speed of sound ([2]; 328.15 K, x2 = 0.399) was 1451 ± 7 m/s. For the same compound, the viscosity ([2]; 328.15 K, x2 = 0.399) was 12.1 ± 0.3 mPa·s, the mass density ([2]; 328.15 K, x2 = 0.4977) was 1090.7 ± 2.3 kg/m3 and the speed of sound ([2]; 328.15 K, x2 = 0.4977) was 1399 ± 6 m/s. It also gave a viscosity ([2]; 328.15 K, x2 = 0.4977) of 9.184 ± 0.22 mPa·s, a mass density ([2]; 328.15 K, x2 = 0.6341) of 1032.6 ± 1.2 kg/m3 and a speed of sound ([2]; 328.15 K, x2 = 0.6341) of 1318 ± 6 m/s. It also gave a viscosity ([2]; 328.15 K, x2 = 0.6341) of 5.878 ± 0.14 mPa·s, a mass density ([2]; 328.15 K, x2 = 0.7223) of 986.2 ± 0.8 kg/m3 and a speed of sound ([2]; 328.15 K, x2 = 0.7223) of 1259 ± 5 m/s. It also gave a viscosity ([2]; 328.15 K, x2 = 0.7223) of 4.15 ± 0.099 mPa·s, a mass density ([2]; 328.15 K, x2 = 0.8551) of 896.6 ± 0.7 kg/m3 and a speed of sound ([2]; 328.15 K, x2 = 0.8551) of 1161 ± 5 m/s. It also gave a viscosity ([2]; 328.15 K, x2 = 0.8551) of 2.225 ± 0.053 mPa·s, a mass density ([2]; 328.15 K, x2 = 0.9706) of 788.5 ± 0.9 kg/m3 and a speed of sound ([2]; 328.15 K, x2 = 0.9706) of 1063 ± 5 m/s. The viscosity ([2]; 328.15 K, x2 = 0.9706) was 1.147 ± 0.033 mPa·s.
